One series concerns the target human AT2R fused to Cb23 (Homo sapiens, UniProt P50052). As to the kind of experiment: Radioligand binding assay, displacement of 125I-[Sar1, Ile8]-Angiotensin II, hAT2R Cb23. Particulars: displacement of 125I-[Sar1, Ile8]-Angiotensin II, human AT2R fused to Cb23, HEK-293 cell membrane preparations; read-out: Binding affinity on hAT2R_Cb23 IC50. In short, it runs like this:
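Membranes from HEK-293 cells expressing human AT2R fused to Cb23 were incubated with 0.05 nM 125I-[Sar1, Ile8]-Angiotensin II in 100 μL buffer (50 mM Tris, 5 mM MgCl2, 1 mM EDTA, 0.1% BSA, pH 7.4) for one hour at 25° C. Ligands were tested as eight-point dose-response curves in duplicate, with C21 and Angiotensin II as references.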
(In general: In a radioligand displacement assay an active substance lowers the binding of a labelled ligand.)

Series [1] can be described thus: Liver microsomal stability, human. To be noted: pH 7.4, liver microsomes. Format: in vitro ADME. The protocol:
(§1) Microsomal incubations were carried out in 96-well plates in 5 aliquots of 40 μL each (one for each time point). Liver microsomal incubation medium contained PBS (100 mM, pH 7.4), MgCl2 (3.3 mM), NADPH (3 mM), glucose-6-phosphate (5.3 mM), glucose-6-phosphate dehydrogenase (0.67 units/ml) with 0.42 mg of liver microsomal protein per ml. Control incubations were performed replacing the NADPH-cofactor system with PBS. Test compound (2 μM, final solvent concentration 1.6%) was incubated with microsomes at 37° C., shaking at 100 rpm. Incubations were performed in duplicates. Five time points over 40 minutes have been analyzed. The reactions were stopped by adding 12 volumes of 90% acetonitrile-water to incubation aliquots, followed by protein sedimentation by centrifuging at 5500 rpm for 3 minutes. […]. Supernatants were analyzed using the HPLC system coupled with tandem mass spectrometer (API3000 PE Sciex). Acquisition and analysis of the data were performed using Analyst 1.5.2 software (PE Sciex). The elimination constant (kel), half-life (t½) and intrinsic clearance (Clint) were determined in plot of […] versus time, using linear regression analysis:
(§2) A 10 mM stock solution of compound in DMSO is diluted three-fold in DMSO. This pre-diluted compound solution is then further diluted to 2 μM in a 50 mM phosphate buffer (PBS, pH 7.4) and pre-warmed at 37° C. This compound dilution is mixed F2 with microsomal/cofactor mix at 37° C. under shaking at 300 rpm. Final reaction conditions are: 100 μL incubation volume, 1 μM of test compound (in duplicate), <0.1% DMSO, 0.5 mg/mL microsomes, 0.6 U/mL Glucose-6-phosphate-dehydrogenase (G6PDH, Roche, 10127671001), 3.3 mM MgCl2 (Sigma, M2670), 3.3 mM glucose-6-phosphate (Sigma, G-7879) and 1.3 mM NADP+ (Sigma, N-0505).
(§3) After 60 min of incubation at 300 rpm and 37° C., the reaction was stopped with 3 volumes of STOP solution (acetonitrile/MeOH 2/1 with diclofenac as internal standard). For the time point zero, 3 volumes of STOP solution were added to the compound dilution before the microsome mix was added. Six time points over 60 minutes have been analyzed. The samples of all time points were centrifuged, filtered and the supernatant analyzed by LCMS/MS (systems API4000).
(§4) The instrument responses (peak areas/IS peak area) were referenced to the zero time-point samples (considered as 100%) in order to determine the percentage of compound remaining.
(§5) Testosterone (1 μM) and Propranolol and Caffeine (1 μM) were used as reference compounds, being unstable and stable compounds respectively. If the microsomal stability values for these controls are not in the range determined by the historical data, the assay is not validated. The solubility of the compound in the final test concentration in 50 mM buffer pH 7.4 is checked by microscope to indicate whether precipitation is observed or not. If a precipitate is observed, no data of microsomal stability is generated.
In general terms: Liver microsomes are a subcellular fraction often used to study metabolism.

The target of a further series is human AT1R (Homo sapiens (Human), UniProt P30556). As to the kind of experiment: Counterscreen radioligand binding assay, displacement of 125I-[Sar1, Ile8]-Angiotensin II, hAT1R WT. Particulars: for inhibition at 1 µM / inhibition at 10 µM: 125I-[Sar1, Ile8]-Ang II, semi-quantitative score; for inhibition at 1 µM: compound at 1 μM, read-out: % Displaced radioligand at 1 μM; for inhibition at 10 µM: compound at 10 μM, read-out: % Displaced radioligand at 10 μM. Put shortly: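 Membranes from HEK-293 cells expressing human AT1R were incubated for one hour at 25° C, pH 7.4, with 0.05 nM radiolabelled [Sar1, Ile8]-Ang II and test ligand. Bound radioactivity was collected on PEI-soaked filters, with 10 μM unlabelled [Sar1]-Ang II defining non-specific binding. Results are percent displacement at 1 μM and […], or IC50 from eight-point duplicate curves.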
(In general: The purpose of a counterscreen is to sort out artefacts and off-target activity.)

Series [2] in a line: Liver microsomal stability, dog. It counts as in vitro ADME. To be noted: male, Beagle, pH 7.4, liver microsomes. The protocol: (§6) Mouse hepatic microsomes were isolated from pooled, perfused livers of male CD1 mice. Rat hepatic microsomes were isolated from pooled, perfused livers of male Sprague Dawley rats. Dog hepatic microsomes were isolated from pooled, perfused livers of male Beagle dogs. The batches of microsomes were tested for quality control using Testosterone, Propranolol and Caffeine as reference compounds.
as §2, §3, §4, §5

Series [3] is described as follows: Liver microsomal stability, rat. It counts as in vitro ADME. Particulars: male, pH 7.4, liver microsomes. The protocol: Mouse hepatic microsomes were isolated from pooled (50), perfused livers of male Balb/c mice. Rat hepatic microsomes were isolated from pooled (15), perfused livers of male Wistar rats. Isolation was performed according to the standard protocol (Hill, J. R. in Current Protocols in Pharmacology 7.8.1-7.8.11, Wiley Interscience, 2003). The batches of microsomes were tested for quality control using Imipramine, Propranolol and Verapamil as reference compounds.
as §1, §6, §2, §3, §4, §5

A short description of series [4]: Caco-2 permeability assay. Format: in vitro ADME. Particulars: human, pH 7.4; Caco-2, BA.
Series [5] in a line: Caco-2 permeability assay. It counts as in vitro ADME. To be noted: human. The protocol: Caco-2 cells were cultured in 75 cm^2 flasks to 80-90% confluence according to the ATCC and Millipore recommendations (Arena A. et al., 2003) in humidified atmosphere at 37° C. and 5% CO2. Cells were detached with Trypsin/EDTA solution and resuspended in the cell culture medium to a final concentration of 2×10^5 cells/ml. 500 μl of the cell suspension was added to each well of HTS 24-Multiwell Insert System and 1000 μl of prewarmed complete medium was added to each well of the feeder-plate. Caco-2 cells were incubated in Multiwell Insert System for 21 days before the transport experiments. The medium in filter plate and feeder tray was refreshed every other day. After 21 days of the cell growth, the integrity of the monolayer was verified by measuring the transepithelial electrical resistance (TEER) for every well using the Millicell-ERS system ohm meter. The final TEER values were within the range 150-600 Ω×cm^2 (Srinivasan B. et al., 2015) as required for the assay conditions. 24-well insert plate was removed from its feeder plate and placed in a new sterile 24-well transport analysis plate. The inserts were washed with PBS after medium aspiration. To determine the rate of compounds transport in apical (A)-to-basolateral (B) direction, 300 μL of the test compound dissolved in transport buffer at 10 μM (HBSS, 25 mM HEPES, pH=7.4) was added into the filter wells; 1000 μL of buffer (HBSS, 25 mM HEPES, pH=7.4) was added to transport analysis plate wells. Propranolol, Atenolol, Quinidine and Digoxin were used as reference compounds. The plates were incubated for 90 min at 37° C. under continuous shaking at 50 rpm. 75 μL aliquots were taken from the donor and receiver compartments for LC-MS/MS analysis. All samples were mixed with 2 volumes of acetonitrile followed by protein sedimentation by centrifuging at 10000 rpm for 10 minutes. Supernatants were analyzed using the HPLC system coupled with tandem mass spectrometer. The apparent permeability (Papp) was calculated for Caco-2 permeability assay using the following equation:
• VA=volume of transport buffer in acceptor well • Area=surface area of the insert (equals to effective growth area of the insert −0.31 sq.cm) • Time=time of the assay • [drug]acc=concentration of test compound in acceptor well • [drug]initial,d=initial concentration of test compound in a donor well • Papp is expressed in 10^−6 cm/sec.
The % recovery can be useful in interpreting the Caco-2 data. If the recovery is very low, this may indicate poor solubility, binding of the compound to the test plate materials, metabolism by the Caco-2 cells, or accumulation of the compound in the cell monolayer. The % recovery was calculated using the following equation:
• Vacc=volume of compound solution in acceptor well […] • Vd=volume of compound solution in […] • Cacc=concentration of test compound in acceptor well (μM) • Cinitial,d=initial concentration of test compound in a donor well (μM)

The nature of series [6]: Metabolic stability in hepatocytes, rat. Format: in vitro ADME. Particulars: hepatocytes (cryopreserved), read-out: Rat Clint (μL/min/10^6 cells). The protocol:
The aim of this assay is to determine the metabolic stability of the compound in hepatocytes (cryopreserved) of different species (mouse CD1, rat Sprague Dawley, dog Beagle). Low hepatocyte stability may result in the formation of unwanted metabolites, high clearance, and therefore is not desirable. The decrease in parent was assessed by measuring the percentage remaining by LC-MS/MS analysis. The batches of hepatocytes were tested for quality control using Testosterone, Umbelliferone and Caffeine as reference compounds.
A 10 mM stock solution of test compound in DMSO was first diluted in DMSO to 3 mM, and then in modified Krebs-Henseleit buffer (Sigma, K3753) to 5 μM. This compound dilution was added to a suspension of pooled cryopreserved hepatocytes (BioIVT) at 37° C. under gentle shaking. Final reaction conditions were: 1 μM of test compound, <0.1% DMSO, 0.5 million viable hepatocytes/mL, and 75 μL incubation volume.
After 0, 10, 20, 45, 90, 120 and 180 min of incubation, the reaction was terminated with 3 volumes of MeCN:MeOH (2:1) containing diclofenac as analytical internal standard. Samples were mixed, centrifuged and the supernatant analyzed by LC-MS/MS (systems API4000). The instrument responses (ratios of test compound and internal standard peak areas) were referenced to the zero time point samples (considered as 100%) in order to determine the percentage of compound remaining. Plots of percentage compound remaining were used to determine the intrinsic clearance in the hepatocyte incubations.
Testosterone (1 μM) and Umbelliferone (1 μM) and Caffeine (1 μM) were used as reference compounds, being unstable and stable compounds respectively. If the hepatocyte stability values for these controls are not in the range determined by the historical data, the assay is not validated.

Here are results for 5 compounds from US20240368133A1, “Compounds for the Treatment of Pain, in Particular, Neuropathic Pain, and/or Other Diseases or Disorders that are Associated with AT2R and/or AT2R Mediated Signaling” (Confo Therapeutics N.V., priority 2021, published 2024).

Structures are written as SMILES.

Chain of human AT2R fused to Cb23 (P50052 whole entry, looked up, the tested form may be a part): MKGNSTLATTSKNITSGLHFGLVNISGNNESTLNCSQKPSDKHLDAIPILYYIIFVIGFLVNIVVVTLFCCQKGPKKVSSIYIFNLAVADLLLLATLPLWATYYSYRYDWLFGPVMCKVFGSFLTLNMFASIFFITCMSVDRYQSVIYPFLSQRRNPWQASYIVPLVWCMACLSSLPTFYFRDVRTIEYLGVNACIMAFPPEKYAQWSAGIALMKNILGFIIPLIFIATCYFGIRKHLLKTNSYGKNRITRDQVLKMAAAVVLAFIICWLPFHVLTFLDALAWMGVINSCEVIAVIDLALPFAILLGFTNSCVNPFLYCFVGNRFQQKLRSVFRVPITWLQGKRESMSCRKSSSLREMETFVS
Chain of human AT1R (P30556 whole entry): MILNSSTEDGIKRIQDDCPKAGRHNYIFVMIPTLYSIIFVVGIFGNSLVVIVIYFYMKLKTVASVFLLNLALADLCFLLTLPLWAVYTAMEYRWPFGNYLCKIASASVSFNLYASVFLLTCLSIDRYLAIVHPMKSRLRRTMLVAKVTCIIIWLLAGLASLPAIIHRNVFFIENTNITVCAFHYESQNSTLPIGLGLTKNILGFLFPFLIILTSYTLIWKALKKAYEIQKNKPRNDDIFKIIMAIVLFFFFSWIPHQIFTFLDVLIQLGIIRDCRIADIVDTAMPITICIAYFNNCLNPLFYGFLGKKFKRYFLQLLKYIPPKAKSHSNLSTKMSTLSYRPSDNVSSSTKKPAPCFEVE

A word on the IC50: it is the concentration that gives 50% inhibition. By microsomal CLint is commonly meant the rate of metabolic loss divided by the concentration. Low readings indicate slow turnover, high ones rapid turnover. For `Cc1ccnc(CN2CCN(c3cc(CC(C)C)cc(F)c3-c3nn[nH]n3)C[C@@H]2C)c1` [Compound A-229, (2S)-4-[3-fluoro-5-isobutyl-2-(2H-tetrazol-5-yl)phenyl]-2-methyl-1-[(4-methyl-2-pyridyl)methyl]piperazine], the IC50 on human AT2R fused to Cb23 amounted to 7.98 nM. Besides, the microsomal CLint in series [1] was 21.6 µL/min/mg. In addition, at human AT1R, the inhibition at 1 µM was below 30% and the inhibition at 10 µM was below 30%. The microsomal CLint at 1 µM in series [2] was below 11.7 µL/min/mg. In series [3], this compound came in with a microsomal CLint of 24.8 µL/min/mg.
Consider `COc1ccnc(CN2CCN(c3cc(CC(C)C)cc(F)c3-c3nn[nH]n3)C[C@@H]2C)c1` [Compound A-227, (2S)-4-[3-fluoro-5-isobutyl-2-(2H-tetrazol-5-yl)phenyl]-1-[(4-methoxy-2-pyridyl)methyl]-2-methyl-piperazine], for which the IC50 on human AT2R fused to Cb23 is 8.75 nM. The same compound gave a microsomal CLint in series [1] of 16.5 µL/min/mg. Further, on human AT1R, the inhibition at 1 µM was below 30% and the inhibition at 10 µM was below 30%. For the same compound, the microsomal CLint at 1 µM in series [2] is below 11.7 µL/min/mg. Further, the microsomal CLint in series [3] turned out to be 22.3 µL/min/mg.
Turning to `Cc1cccnc1CN1CCN(c2cc(CC(C)C)cc(F)c2-c2nn[nH]n2)C[C@@H]1C` [Compound A-228, (2S)-4-[3-fluoro-5-isobutyl-2-(2H-tetrazol-5-yl)phenyl]-2-methyl-1-[(3-methyl-2-pyridyl)methyl]piperazine], the half-maximal inhibitory concentration (IC50) at human AT2R fused to Cb23 is 14.9 nM. The same compound displayed an intrinsic metabolic clearance (microsomal CLint) in series [1] of 97.6 µL/min/mg. Besides, at human AT1R, the inhibition at 1 µM was below 30% and the inhibition at 10 µM is below 30%. The compound further registered a microsomal CLint at 1 µM in series [2] below 11.7 µL/min/mg. This compound showed an intrinsic metabolic clearance (microsomal CLint) in series [3] of 28.3 µL/min/mg.
Usually Papp B→A stands for how fast a substance crosses the layer from the basolateral side. As usually defined, the efflux ratio is the permeability from basolateral to apical divided by that in the opposite direction, in the common usage. One may read the Papp A→B as how fast a substance crosses the layer from the apical side. For the compound `CCc1cc(CC(C)C)cc(N2CCN(Cc3cccnn3)CC2)c1-c1nn[nH]n1` [Compound A-168], in series [4], the basolateral-to-apical permeability (Papp B→A) at 90 min, 10 µM turned out to be 14.7 ×10⁻⁶ cm/s. Besides, the IC50 on human AT2R fused to Cb23 is 17.7 nM. At human AT1R, the inhibition at 1 µM was below 30% and the inhibition at 10 µM was below 30%. In addition, in series [5] (Caco-2, pH 7.4), the efflux ratio at 90 min, 10 µM was determined as 11.3 and the recovery at 90 min, 10 µM was found to be 97%. The compound also yielded an apparent permeability from apical to basolateral (Papp A→B) at 90 min, 10 µM in series [5] (pH 7.4, Caco-2, AB) of 1.3 ×10⁻⁶ cm/s.
In the case of `CC(C)Cc1cc(F)c(-c2nn[nH]n2)c(N2CC(C)N(Cc3cccnn3)C(C)C2)c1` (centres unmarked) [Compound A-184, 3-[[4-[3-fluoro-5-isobutyl-2-(2H-tetrazol-5-yl)phen-yl]-2,6-dimethyl-piperazin-1-yl]-methyl]pyridazine], the IC50 at human AT2R fused to Cb23 came out at 0.893 nM; at human AT1R (HEK-293 cell membranes, read-out: Binding affinity On hAT1R IC50), 33600 nM. In addition, the values for the microsomal CLint in series [1] and in series [3] were 18 µL/min/mg and 19 µL/min/mg, respectively. For the same compound, on human AT1R, the inhibition at 1 µM was below 30%. For the same compound, the inhibition at 10 µM on human AT1R is below 30%. Moreover, in series [6], the hepatocyte CLint was found to be 2 µL/min/1e6 cells.
